Laboratory results taken from article PMC10447463, “Data-mining unveils structure–property–activity correlation of viral infectivity enhancing self-assembling peptides” (Nature Communications, 2023).

Experiments:
[1] = type: physicochemical; set-up: key to Fibril / Fibril Formation / TEM 2cat / Fibril: 1 = fibrils present; 0 non-fibrillar structures; conditions: for Fibril / Fibril Formation: TEM, 1 mg/mL, uranyl acetate stain, qualitative
[2] = Turbidity, derived count rate of scattered light; type: physicochemical; conditions: for Count Rate / kcps: derived count rate of scattered light at 633 nm, 173°, from zeta-potential measurement, 0.1 mg/mL in 1 mM KCl after 1 d at 1 mg/mL in PBS, turbidity / microscopic aggregation, mean of triplicate
Procedure, shortened: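 One-day room-temperature aggregation at 1 mg/mL in PBS (pH 7.4) preceded measurement; samples then went into 1 mM KCl. Triplicates per sample, two independent experiments averaged.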

| Substance | Fibril / Fibril Formation [1] | Count Rate / kcps [2] [kcps] | TEM: 1= fibrils, 0= aggregates (micelle), 0.5 = aggregates and fibrils, -1 = nothing obersved, STD prep ([1]; STD prep) | Zeta Count Rate Category ([2]; category 1 / 0, no key given) | Zeta Count Rate / kcps ([2]; derived count rate of scattered light) [kcps] |
| --- | --- | --- | --- | --- | --- |
| GAITIG-NH2 [reference compound] | 0 | 30 |  |  |  |
| RCELARTLKR [reference compound] | 0 | 78 |  |  |  |
| VLYVGSKT [reference compound] | 0 | 24 |  |  |  |
| NSGAITIG-NH2 [reference compound] | 0 | 20 |  |  |  |
| GNNQQNY [reference compound] | 0 | 37 |  |  |  |
| RIRIQIC [PS07] |  |  | 1 | 1 | 191.1 |
| GQTVTK [reference compound] | 0 | 34 |  |  |  |
| IIKIIK [reference compound] | 0 | 4 |  |  |  |
| VQIVYK [reference compound] | 0 | 26 |  |  |  |
| DFNKF [reference compound] | 1 | 1065 |  |  |  |
